The values below come from PMC11530593, “Structural mechanism of human HCN1 hyperpolarization-activated channel inhibition by ivabradine” (The Journal of Biological Chemistry, 2024).

Each structure is given as a SMILES string. Numbering of substitutions follows the chain as printed.

One test concerns the target T1, WT hHCN1 (Homo sapiens, UniProt O60741).
T1 construct: Full-length WT or mutant human HCN1 were cloned into the pcDNA3.1 vector; expressed in transfected cells; host or cells: HeLa cells, pcDNA3.1 vector, transient lipofection
T1 sequence (O60741 1-890): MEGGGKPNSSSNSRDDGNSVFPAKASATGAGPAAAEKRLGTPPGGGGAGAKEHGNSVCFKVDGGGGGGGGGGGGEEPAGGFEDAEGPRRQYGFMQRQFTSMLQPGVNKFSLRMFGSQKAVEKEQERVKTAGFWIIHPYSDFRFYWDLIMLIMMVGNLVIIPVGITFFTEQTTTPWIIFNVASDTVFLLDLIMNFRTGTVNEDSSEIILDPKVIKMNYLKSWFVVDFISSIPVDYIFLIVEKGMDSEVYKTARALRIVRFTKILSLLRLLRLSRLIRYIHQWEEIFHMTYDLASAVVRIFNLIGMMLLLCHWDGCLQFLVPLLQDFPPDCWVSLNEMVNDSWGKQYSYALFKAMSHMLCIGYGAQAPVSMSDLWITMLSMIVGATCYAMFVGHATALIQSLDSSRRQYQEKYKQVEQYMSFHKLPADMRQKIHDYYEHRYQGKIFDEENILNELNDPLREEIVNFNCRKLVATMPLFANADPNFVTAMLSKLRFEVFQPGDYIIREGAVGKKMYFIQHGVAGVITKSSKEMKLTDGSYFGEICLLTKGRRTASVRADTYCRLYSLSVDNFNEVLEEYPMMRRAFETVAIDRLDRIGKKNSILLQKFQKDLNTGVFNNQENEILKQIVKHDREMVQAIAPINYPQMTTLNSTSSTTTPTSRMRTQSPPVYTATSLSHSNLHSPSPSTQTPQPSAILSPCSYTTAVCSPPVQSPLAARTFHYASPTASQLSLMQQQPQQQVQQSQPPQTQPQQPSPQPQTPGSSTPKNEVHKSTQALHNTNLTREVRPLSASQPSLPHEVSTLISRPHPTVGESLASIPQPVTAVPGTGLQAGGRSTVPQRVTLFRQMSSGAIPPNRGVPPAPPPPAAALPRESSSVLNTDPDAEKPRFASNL
Kind of test: Whole-cell patch-clamp, Ih inhibition in transfected HeLa cells. The class given is cell-based. As for the experimental part:
The electrophysiological characteristics of WT hHCN1 were recorded using whole-cell patch-clamp. […] Activation of the HCN1 channel occurred in response to membrane hyperpolarization.
(§1) Full-length WT or mutant human HCN1 were cloned into the pcDNA3.1 vector for electrophysiological experiments. HeLa cells (from Thermo Fisher Scientific) cultured in Dulbecco's modified Eagle's medium (from Solarbio Life Science) + 10% fetal bovine serum (from ExCell Bio) at 37 °C were transiently transfected using lipofection, and whole-cell patch-clamp recordings were obtained using the Axon 200B amplifier (Molecular Devices) and clampex software (https://www.moleculardevices.com/products/axon-patch-clamp-system/acquisition-and-analysis-software/pclamp-software-suite), 36 to 48 h posttransfection. The extracellular solution contained 110 mM NaCl, 0.5 mM MgCl2, 1.8 mM CaCl2, 5 mM Hepes, 30 mM KCl, and pH was adjusted to 7.4 with NaOH, while the pipette solution contained 130 mM KCl, 10 mM NaCl, 0.5 mM MgCl2, 1 mM EGTA, 5 mM Hepes, and pH was adjusted to 7.4 with KOH. The recordings were performed at room temperature, voltage-clamp mode, and filtered at 1 kHz. The sampling frequency was 10 kHz, and the series resistance was limited to 5 MΩ. To elicit channel currents, step pulses of 3 s duration ranging from −180 mV to −30 mV were applied, followed by a step to −180 mV lasting 1.25 s. The tail currents evoked by the second step were used to determine the voltage-dependent activation curves and calculate the midpoint of activation potential (V1/2). The half maximal inhibitory concentration (IC50) of drugs was determined by recording currents at a pulse of −140 mV and analyzing current amplitudes at varying drug concentrations. The IC50 value was calculated using the Hill equation.
(In general: The patch-clamp technique gives a direct electrical read-out from membranes.)

A further test concerns the target T2, HCN1 mutant Y289A (Homo sapiens, UniProt O60741, Y289A).
T2 construct: Full-length WT or mutant human HCN1 were cloned into the pcDNA3.1 vector; expressed in transfected cells; host or cells: HeLa cells, pcDNA3.1 vector, transient lipofection
T2 sequence (O60741 1-890 Y289A): T1 sequence (O60741 1-890) with Y289A
Nature of the test: Whole-cell patch-clamp, Ih inhibition, HCN1 mutant. The class given is cell-based. The note with it: electrophysiological recordings, read-out: IC50 (Fig. 2F). The procedure:
To elucidate the contribution of these residues to the inhibitory effect of ivabradine, we introduced mutations in ivabradine-interacting residues, converting them into alanines (Fig. 2F).
as §1

As for `COc1cc2c(cc1OC)CC(=O)N(CCCN(C)C[C@H]1Cc3cc(OC)c(OC)cc31)CC2` [ivabradine], at WT hHCN1 (20 μM), the “effect on Ih current” value is listed as “significantly reduced”. For the same compound, the IC50 at WT hHCN1 (membrane potential -140 mV, read-out: half-maximal inhibitory concentration (IC50) of Ih inhibition) stood at 2.94 ± 0.61 µM; at HCN1 mutant Y289A it was 11.8 µM.
